Measured values published in US9676780B2, “Piperazine-substituted [1,2,4]triazolo[1,5-C]quinazolin-5-amine compounds with A2A antagonist properties” (MERCK SHARP & DOHME CORP., priority 2012, dated 2017).
Like-named read-outs stand apart in the source and are kept apart here.

Molecular target: T1, human A2a receptor (Homo sapiens, UniProt P29274)
T1 construct: purchased Perkin-Elmer RBHA2AM400UA; host or cells: HEK293
Assay: A2a receptor competition binding assay (Scintillation Proximity, tritiated radioligand)
Settings: 0.5 nM tritiated ligand, SPA beads, one hour at room temperature
Method: Binding affinities of compounds of the invention for the human A2a receptor were determined in a competition binding assay using Scintillation Proximity technology. […] The beads were then allowed to settle to the bottom of the wells for 1 hr, after which the membrane-associated radioactivity was determined by scintillation counting in a TopCount microplate reader. Ki values were determined using the Cheng-Prusoff equation.
• HEK293 cells expressing the human, rat, dog or monkey adenosine 2a receptor (Purchased from Perkin-Elmer # RBHA2AM400UA). • The Tritiated compound was prepared in-house by MRL Radiochemistry according to published methods. • Wheatgerm agglutinin-coated yttrium silicate SPA beads (GE Healthcare #RPNQ0023). […] This is a 2.5× solution. The final concentration in the assay is 0.5 nM. Calculate the concentration by counting two 5 ul aliquots. Membrane Preparation • Use 0.25 ug of membrane/well. Dilute membranes to 9.7 ug/ml in assay buffer. Treat with 20 ug/ml adenosine deaminase (ADA) for 15 minutes at room temperature to degrade endogenous adenosine. Membrane-Bead Mixture • Use 100 ug/well wheatgerm agglutinin-coated yttrium silicate SPA beads. • Mix ADA-treated membranes and SPA beads together for 30 min prior to assay. […] Incubate for one hour at room temperature with agitation. • Include total binding (assay buffer+1% DMSO) and non-specific binding (CGS15943, 1 uM) wells. Counting • Allow the beads to settle for one hour. • Count in TopCount. Calculations • A curve fitting program (i.e., Prism, Activity Base, Chemcart) is used to determine the EC50.
The Ki value is calculated using the Cheng-Prusoff equation. Ki=EC50/(1+(radioligand concentration/Kd))

[1] = membranes from HEK293 cells expressing the human A2a receptor, read-out: A2a EC50
[2] = A2a EC50, membranes from HEK293 cells expressing the human A2a receptor

T1 sequence (P29274 whole entry): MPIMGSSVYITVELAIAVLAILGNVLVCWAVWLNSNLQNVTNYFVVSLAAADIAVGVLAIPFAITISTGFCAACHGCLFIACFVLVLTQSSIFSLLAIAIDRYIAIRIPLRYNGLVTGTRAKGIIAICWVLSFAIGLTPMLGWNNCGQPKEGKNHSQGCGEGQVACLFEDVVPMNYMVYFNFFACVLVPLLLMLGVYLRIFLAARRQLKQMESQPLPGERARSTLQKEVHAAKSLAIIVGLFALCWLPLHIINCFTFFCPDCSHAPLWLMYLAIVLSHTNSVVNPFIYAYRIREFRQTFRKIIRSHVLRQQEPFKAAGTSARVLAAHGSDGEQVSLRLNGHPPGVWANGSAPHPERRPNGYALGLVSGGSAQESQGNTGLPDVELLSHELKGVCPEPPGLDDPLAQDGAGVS

SMILES | EC50 [1] [nM] | EC50 [2] [nM]
COc1cccc2c1nc(N)n1nc(CCN3CCN(c4ccc(F)cn4)C[C@H]3C)nc21 [Ex-169] | 2.6 | 
COc1cccc2c1nc(N)n1nc(CN3CCN(c4ccccn4)CC3)nc21 [Ex-170] | 157 | 
COc1cccc2c1nc(N)n1nc(CN3CCN(C(=O)OC(C)(C)C)CC3C(F)(F)F)nc21 (stereo not shown) [Ex-171] | 30.4 | 
COc1cccc2c1nc(N)n1nc(CN3CCN(c4ccc(C(F)(F)F)cn4)C[C@H]3C)nc21 [Ex-173] | 22.6 | 
COc1cccc2c1nc(N)n1nc(CN3CCN(c4ccc(F)cc4)CC3CF)nc21 (stereo not shown) [Ex-176] | 8.9 | 
COc1cccc2c1nc(N)n1nc(CN3CCN(c4ccc(F)cc4)CC3C(F)(F)F)nc21 (stereo not shown) [Ex-177] | 12.7 | 
COc1ccc(N2CCN(Cc3nc4c5cccc(OC)c5nc(N)n4n3)CC2(C)C)cc1 [Ex-180] | 1.1 | 
COc1cccc2c1nc(N)n1nc(CN3CCN(c4ccc(F)cc4)[C@@H](C)C3)nc21 [Ex-181] | 19.9 | 
COc1cccc2c1nc(N)n1nc(CN3CCN(c4ccc(F)cc4)CC3(C)C)nc21 [Ex-183] | 5 | 
COc1ccc(N2CCN(Cc3nc4c5cc(F)cc(OC)c5nc(N)n4n3)CC2(C)C)cc1 [Ex-184] | 16.4 | 
COc1cccc(N2CCN(Cc3nc4c5cc(F)cc(OC)c5nc(N)n4n3)CC2(C)C)c1 [Ex-186] | 3.5 | 
COCCOc1ccc(N2CCN(Cc3nc4c5cccc(OC)c5nc(N)n4n3)C3(CC3)C2)cc1 [Ex-189] | 3.1 | 
COc1cccc2c1nc(N)n1nc(CN3CCN(S(=O)(=O)C4CC4)CC34CC4)nc21 [Ex-194] | 24.8 | 
COc1cccc2c1nc(N)n1nc(CN3CCN(C(=O)c4ccc(F)cc4)CC3(C)C)nc21 [Ex-202] | 29.1 | 
COc1cccc2c1nc(N)n1nc(CN3C4CCC3C3CCC4N3C(=O)c3ccc(C(F)(F)F)cc3)nc21 [Ex-203] |  | 8.5
COc1cccc2c1nc(N)n1nc(CN3C4CCC3C3CCC4N3C(=O)c3ccc(F)cc3)nc21 [Ex-204] |  | 11.5
COc1cccc2c1nc(N)n1nc(CN3C4CCC3C3CCC4N3c3ccc(C(F)(F)F)cn3)nc21 [Ex-205] |  | 4.1
COc1cc(F)cc2c1nc(N)n1nc(CN3C4CCC3CN(Cc3ccccc3)C4)nc21 [Ex-206] |  | 30.9
COc1cc(F)cc2c1nc(N)n1nc(CN3CC4CCC(C3)N4Cc3ccccc3)nc21 [Ex-207] | 145 | 
COc1cccc2c1nc(N)n1nc(CN3C4CCC3C3CCC4N3)nc21 [Ex-208] |  | 143
COc1ccc(CN2CCN(Cc3nc4c5cccc(OC)c5nc(N)n4n3)CC2=O)cc1 [Ex-209] | 9.4 | 
COc1cc(F)cc2c1nc(N)n1nc(CN3CCN(Cc4ccc(F)cc4)C(=O)C3)nc21 [Ex-211] | 9.9 | 

The next lines start with results.

EC50 [1] [nM] | SMILES | EC50 [2] [nM]
4.1 | COc1cccc2c1nc(N)n1nc(CCN3CCN(c4ccc(F)cc4)C[C@H]3C)nc21 [Ex-168] | 
5.6 | COc1cccc2c1nc(N)n1nc(CN3CCN(c4ccc(F)cc4)CC3C(F)F)nc21 (stereo not shown) [Ex-175] | 
10.2 | COc1cccc2c1nc(N)n1nc(CN3CCN(c4ccc(F)cn4)[C@@H](C)C3)nc21 [Ex-182] | 
5.8 | COc1ccccc1N1CCN(Cc2nc3c4cccc(OC)c4nc(N)n3n2)CC1(C)C [Ex-187] | 
12.6 | CCOC(=O)N1CCN(Cc2nc3c4cccc(OC)c4nc(N)n3n2)C2(CC2)C1 [Ex-188] | 
6.7 | COCCOc1cccc(N2CCN(Cc3nc4c5cccc(OC)c5nc(N)n4n3)C3(CC3)C2)c1 [Ex-190] | 
8.2 | COc1cccc2c1nc(N)n1nc(CN3CCN(c4ccc(F)cc4)CC34CC4)nc21 [Ex-191] | 
153 | COc1cccc2c1nc(N)n1nc(CN3CCN(CCF)CC34CC4)nc21 [Ex-192] | 
128 | COCCN1CCN(Cc2nc3c4cccc(OC)c4nc(N)n3n2)C2(CC2)C1 [Ex-193] | 
41.6 | COc1cccc2c1nc(N)n1nc(CN3CCN(c4ccc(F)cc4)C4(CC4)C3)nc21 [Ex-195] | 
95.7 | COc1cccc2c1nc(N)n1nc(CN3CCN(CCC(F)(F)F)CC34CC4)nc21 [Ex-196] | 
10.8 | COc1cccc2c1nc(N)n1nc(CN3CCN(c4ccc(C(F)(F)F)cn4)CC3(C)C)nc21 [Ex-199] | 
15.6 | COc1cccc2c1nc(N)n1nc(CN3CCN(C(=O)c4ccc(C(F)(F)F)cc4)CC3(C)C)nc21 [Ex-200] | 
50.2 | COc1cccc2c1nc(N)n1nc(CN3[C@H](C)CN(C(=O)c4ccc(F)cc4)C[C@@H]3C)nc21 [Ex-201] | 
7.7 | COc1cccc2c1nc(N)n1nc(CN3CCN(Cc4ccc(C)cc4)C(=O)C3)nc21 [Ex-210] | 
